Numbers after ± are expanded uncertainties.
Assays:
[1] = Liquid; for mass density: 293.15 K, 101.33 kPa
[2] = refractive index (Na D-line) (dimensionless); conditions: 293.15 K; 101.33 kPa; Liquid

| Structure (SMILES) | mass density [1] | Normal boiling temperature [1] | refractive index [2] |
| --- | --- | --- | --- |
| CC(C)OC(C)C [diisopropyl ether] | 723.9 ± 2.4 kg/m3 | 68.40 ± 0.4 °C | – |
| CCC(=O)O [propanoic acid] | 993 ± 0.74 kg/m3 | 141.2 ± 0.4 °C | 1.3811 ± 0.0017 |
| CCCOCCC [dipropyl ether] | 736.1 ± 8.8 kg/m3 | 90.08 ± 0.4 °C | 1.3813 ± 0.0064 |

Source: the NIST ThermoML archive (doi:10.1016/j.jct.2006.05.005)
